Measurements taken from patent US8110681B2, “Compounds for the treatment of spinal muscular atrophy and other uses” (The United States of America as represented by the …, priority 2006, dated 2012).
Read-outs that look alike come from different tables or passages of the source.

System: SMN2-linked luciferase-reporter gene construct
Assay: SMN splice reporter assay (SMN2-linked luciferase reporter, Example 10)
Format: cell-based
Settings: for maximal fold induction: read-out: SMN Splice Reporter Assay (Example 10) Avg MaxFold Increase
Outline: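 Values are fold-increase in luciferase signal relative to baseline cells without compound. The cervical carcinoma line used holds a fusion of alternatively spliced SMN2 sequence and luciferase. Readable frame, and thus signal, arises only with exon 7-including splicing.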

[1] = maximum fold increase of reporter signal, average
[2] = SMN2-linked luciferase reporter, average
[3] = SMN2-linked luciferase reporter, average maximum fold increase

Compound: COCC(C)c1ccc(N2Cc3ccc(C4CCCC4)cc3C2=O)cc1 (stereo not shown) [ALB-114845]
- maximal fold induction [1]: 1.15

Compound: CCOCc1ccc2c(c1)C(=O)N(c1ccc(C(C)COC)cc1)C2 (stereo not shown) [ALB-114846]
- EC50 [2]: 0.493 µM
- maximal fold induction [1]: 1.3

Compound: COCC(C)c1ccc(N2Cc3ccc(COC(C)C)cc3C2=O)cc1 (stereo not shown) [ALB-114847]
- maximal fold induction [1]: 1.23

Compound: Cc1ccc(N2Cc3ccccc3C2=O)cc1 [ALB-114898]
- EC50 [2]: 0.302 µM
- maximal fold induction [1]: 1.36

Compound: CCCOc1ccc2c(c1)C(=O)N(c1ccc(C(C)C(=O)O)cc1)C2 (stereo not shown) [ALB-114934]
- EC50 [2]: 0.033 µM
- maximal fold induction [1]: 1.87

Compound: CC(C)OCC(C)c1ccc(N2Cc3ccccc3C2=O)cc1 (stereo not shown) [ALB-114935]
- EC50 [2]: 0.977 µM
- maximal fold induction [1]: 1.26

Compound: CC(C)(C)c1ccc(N2Cc3ccccc3C2=O)cc1 [ALB-114936]
- EC50 [2]: 0.131 µM
- maximal fold induction [1]: 1.41

Compound: CCCc1ccc2c(c1)C(=O)N(c1ccc(C(C)C)cc1)C2 [ALB-114939]
- EC50 [2]: 0.298 µM
- maximal fold induction [1]: 1.43

Compound: CCc1ccc(N2Cc3ccccc3C2=O)cc1 [ALB-114940]
- EC50 [2]: 0.097 µM
- maximal fold induction [1]: 1.36

Compound: COCc1ccc2c(c1)C(=O)N(c1ccc(C(C)CO)cc1)C2 (stereo not shown) [ALB-114941]
- EC50 [2]: 0.299 µM
- maximal fold induction [1]: 1.35

Compound: COCc1ccc2c(c1)C(=O)N(c1ccc(C(C)COC)cc1)C2 (stereo not shown) [ALB-114942]
- EC50 [2]: 0.217 µM
- maximal fold induction [1]: 1.33

Compound: COCC(C)c1ccc(N2Cc3cc(OC)c(OC)cc3C2=O)cc1 (stereo not shown) [ALB-114943]
- EC50 [2]: 1.31 µM
- maximal fold induction [1]: 1.35

Compound: O=C1c2ccccc2CN1c1ccc(C2CCCC2)cc1 [ALB-115068]
- EC50 [2]: 0.053 µM
- maximal fold induction [1]: 1.41

Compound: COCCOc1ccc2c(c1)C(=O)N(c1ccc(C(C)C(=O)O)cc1)C2 (stereo not shown) [ALB-115071]
- EC50 [2]: 0.824 µM
- maximal fold induction [1]: 1.39

Compound: COCC(C)c1ccc(N2Cc3ccc(C)cc3C2=O)cc1 (stereo not shown) [ALB-115072]
- EC50 [2]: 0.032 µM
- SMN Splice Reporter Assay (Example 10) Avg MaxFold Increase [1]: 1.28

Compound: COCCc1ccc(N2Cc3ccccc3C2=O)cc1 [ALB-115073]
- maximal fold induction [1]: 1.19

Compound: CCc1ccc(N2Cc3ccc(OC)cc3C2=O)cc1 [ALB-115085]
- EC50 [2]: 0.058 µM
- maximal fold induction [1]: 1.47

Compound: CCCCc1ccc2c(c1)C(=O)N(c1ccc(C(C)C(=O)O)cc1)C2 (stereo not shown) [ALB-115086]
- EC50 [2]: 0.061 µM
- maximal fold induction [1]: 2.06

Compound: CC(C(=O)O)c1ccc(N2Cc3ccc(I)cc3C2=O)cc1 (stereo not shown) [ALB-115216]
- EC50 [2]: 0.075 µM
- maximal fold induction [1]: 1.87

Compound: COCCc1ccc(N2Cc3ccc(OC)cc3C2=O)cc1 [ALB-115217]
- maximal fold induction [1]: 1.26

Compound: C/C=C/c1ccc2c(c1)C(=O)N(c1ccc(C(C)C)cc1)C2 [ALB-115319]
- maximal fold induction [1]: 1.24

Compound: COCc1ccc(N2Cc3ccccc3C2=O)cc1 [ALB-115323]
- maximal fold induction [1]: 1.1

Compound: CC(C)COc1ccc2c(c1)C(=O)N(c1ccc(C(C)C(=O)O)cc1)C2 (stereo not shown) [ALB-115325]
- EC50 [2]: 0.074 µM
- maximal fold induction [1]: 1.57

Compound: CC(C(=O)O)c1ccc(N2Cc3ccc(OCc4ccccc4)cc3C2=O)cc1 (stereo not shown) [ALB-115326]
- maximal fold induction [1]: 1.24

Compound: C=Cc1ccc2c(c1)C(=O)N(c1ccc(C(C)COC)cc1)C2 (stereo not shown) [ALB-115327]
- EC50 [2]: 0.076 µM
- maximal fold induction [1]: 1.43

Compound: CCc1ccc2c(c1)C(=O)N(c1ccc(C(C)COC)cc1)C2 (stereo not shown) [ALB-115328]
- EC50 [2]: 0.298 µM
- maximal fold induction [1]: 1.5

Compound: COc1ccc2c(c1)C(=O)N(c1ccc(C3CCCC3)cc1)C2 [ALB-115422]
- EC50 [2]: 0.399 µM
- maximal fold induction [1]: 1.27

Compound: O=C1c2ccccc2CN1c1ccc(C2CCCCC2)cc1 [ALB-115423]
- EC50 [2]: 0.029 µM
- maximal fold induction [1]: 1.21

Compound: CC(C)=Cc1ccc2c(c1)C(=O)N(c1ccc(C(C)C(=O)O)cc1)C2 (stereo not shown) [ALB-115425]
- EC50 [2]: 0.018 µM
- maximal fold induction [1]: 1.95

Compound: CC(C)Cc1ccc2c(c1)C(=O)N(c1ccc(C(C)C(=O)O)cc1)C2 (stereo not shown) [ALB-115426]
- EC50 [2]: 0.013 µM
- maximal fold induction [1]: 1.96

Compound: COCC(C)(C)c1ccc(N2Cc3ccccc3C2=O)cc1 [ALB-115427]
- maximal fold induction [1]: 1.31

Compound: COc1ccc2c(c1)C(=O)N(c1ccc(C3CCCCC3)cc1)C2 [ALB-115496]
- EC50 [2]: 0.556 µM
- maximal fold induction [1]: 1.39

Compound: CCCc1ccc(N2Cc3ccccc3C2=O)cc1 [ALB-115499]
- EC50 [2]: 0.083 µM
- maximal fold induction [1]: 1.27

Compound: CC(C(=O)O)c1ccc(N2Cc3ccc(OCC4CC4)cc3C2=O)cc1 (stereo not shown) [ALB-115500]
- EC50 [2]: 0.115 µM
- maximal fold induction [1]: 1.54

Compound: CC(C(=O)O)c1ccc(N2Cc3ccc(/C=C/C(F)(F)F)cc3C2=O)cc1 (stereo not shown) [ALB-115501]
- EC50 [2]: 2.32 µM
- maximal fold induction [1]: 1.39

Compound: CC(C)(C)c1ccc(N2Cc3ccc(Br)cc3C2=O)cc1 [ALB-115583]
- EC50 [2]: 0.184 µM
- maximal fold induction [1]: 1.37

Compound: CC(C(=O)O)c1ccc(N2Cc3ccc(OCC4CCC4)cc3C2=O)cc1 (stereo not shown) [ALB-115585]
- EC50 [2]: 0.083 µM
- maximal fold induction [1]: 1.48

Compound: CC(C(=O)O)c1ccc(N2Cc3ccc(CCC(F)(F)F)cc3C2=O)cc1 (stereo not shown) [ALB-115588]
- EC50 [2]: 0.356 µM
- maximal fold induction [1]: 1.7

Compound: CCCc1ccc(N2Cc3ccc(Br)cc3C2=O)cc1 [ALB-115589]
- EC50 [2]: 0.143 µM
- maximal fold induction [1]: 1.39

Compound: O=C1c2cc(Br)ccc2CN1c1ccc(C2CCCCC2)cc1 [ALB-115590]
- maximal fold induction [1]: 1.11

Compound: COCC(C)(C)c1ccc(N2Cc3ccc(OC)cc3C2=O)cc1 [ALB-115706]
- EC50 [2]: 0.66 µM
- maximal fold induction [1]: 1.26

Compound: CCCc1ccc(N2Cc3ccc(OC)cc3C2=O)cc1 [ALB-115708]
- maximal fold induction [1]: 1.1

Compound: Cc1ccc(N2Cc3ccccc3C2=O)cc1C [ALB-115711]
- EC50 [2]: 0.274 µM
- maximal fold induction [1]: 1.33

Compound: CCc1ccc2c(c1)C(=O)N(c1ccc(C(C)C)cc1)C2 [ALB-115713]
- EC50 [2]: 0.061 µM
- maximal fold induction [1]: 1.37

Compound: C=Cc1ccc2c(c1)C(=O)N(c1ccc(C(C)C)cc1)C2 [ALB-115714]
- EC50 [2]: 0.053 µM
- maximal fold induction [1]: 1.37

Compound: CC(C)c1ccc(N2Cc3ccc(N4CCCC4)cc3C2=O)cc1 [ALB-115715]
- maximal fold induction [1]: 1.06

Compound: CC(C(=O)O)c1ccc(N2Cc3ccc(C4CC4)cc3C2=O)cc1 (stereo not shown) [ALB-115716]
- EC50 [2]: 0.029 µM
- maximal fold induction [1]: 1.59

Compound: Cc1ccc2c(c1)C(=O)N(c1ccc(C3CCCCC3)cc1)C2 [ALB-115717]
- maximal fold induction [1]: 1.06

Compound: O=C1c2cc(Br)ccc2CN1c1ccc(C2CC2)cc1 [ALB-115718]
- EC50 [2]: 0.022 µM
- maximal fold induction [1]: 1.32

Compound: CC(C)c1ccc(N2Cc3cccc(Br)c3C2=O)cc1 [ALB-115801]
- EC50 [2]: 0.144 µM
- maximal fold induction [1]: 1.45

Compound: O=C1c2ccccc2CN1c1ccc(C2CC2)cc1 [ALB-115802]
- EC50 [2]: 0.061 µM
- maximal fold induction [3]: 1.28

Compound: COc1ccc2c(c1)C(=O)N(c1ccc(C3CC3)cc1)C2 [ALB-115803]
- EC50 [2]: 0.015 µM
- maximal fold induction [3]: 1.26

Compound: CC(C)c1ccc(N2Cc3ccc(N)cc3C2=O)cc1 [ALB-115805]
- EC50 [2]: 0.099 µM
- maximal fold induction [1]: 1.42

Compound: CC(C)=Cc1ccc2c(c1)C(=O)N(c1ccc(C(C)C)cc1)C2 [ALB-115807]
- EC50 [2]: 0.155 µM
- maximal fold induction [3]: 1.3

Compound: CC(C)c1ccc(N2Cc3cc(Br)ccc3C2=O)cc1 [ALB-115810]
- EC50 [2]: 0.145 µM
- maximal fold induction [1]: 1.44

Compound: CC(C)c1ccc(N2Cc3c(Br)cccc3C2=O)cc1 [ALB-115811]
- maximal fold induction [1]: 1.16

Compound: Cc1cccc2c1CN(c1ccc(C(C)C)cc1)C2=O [ALB-115947]
- EC50 [2]: 0.114 µM
- maximal fold induction [1]: 1.39

Compound: Cc1ccc2c(c1)C(=O)N(c1ccc(C3CC3)cc1)C2 [ALB-115949]
- EC50 [2]: 0.006 µM
- maximal fold induction [3]: 1.37

Compound: COCC(C)c1ccc(N2Cc3ccc(CC(C)C)cc3C2=O)cc1 (stereo not shown) [ALB-115976]
- EC50 [2]: 0.179 µM
- maximal fold induction [1]: 1.29

Compound: COCc1ccc(N2Cc3ccc(OC)cc3C2=O)cc1 [ALB-116067]
- maximal fold induction [1]: 1.24

Compound: Cc1ccc2c(c1)C(=O)N(c1ccc(C(C)(C)C)cc1)C2 [ALB-116068]
- EC50 [2]: 0.051 µM
- maximal fold induction [1]: 1.35

Compound: CCCc1ccc(N2Cc3ccc(C)cc3C2=O)cc1 [ALB-116071]
- EC50 [2]: 0.016 µM
- maximal fold induction [1]: 1.35

Compound: O=C1c2cc(Br)ccc2CN1c1ccc(C2CCCC2)cc1 [ALB-116072]
- EC50 [2]: 0.068 µM
- maximal fold induction [3]: 1.36

Compound: Cc1ccc2c(c1)C(=O)N(c1ccc(C3CCCC3)cc1)C2 [ALB-116073]
- maximal fold induction [3]: 1.08

Compound: CCCOc1ccc2c(c1)C(=O)N(c1ccc(C(C)C)cc1)C2 [ALB-116075]
- EC50 [2]: 0.188 µM
- maximal fold induction [1]: 1.26

Compound: CC(C)Oc1ccc2c(c1)C(=O)N(c1ccc(C(C)C)cc1)C2 [ALB-116076]
- EC50 [2]: 0.072 µM
- maximal fold induction [1]: 1.35

Compound: CC(C)c1ccc(N2Cc3ccc(OC4CCCC4)cc3C2=O)cc1 [ALB-116077]
- maximal fold induction [1]: 1.18

Compound: CCc1ccc(N2Cc3cc4c(cc3C2=O)OCCO4)cc1 [ALB-116240]
- EC50 [2]: 0.033 µM
- maximal fold induction [3]: 1.62

Compound: CC(C)Cc1ccc2c(c1)C(=O)N(c1ccc(C(C)C)cc1)C2 [ALB-116245]
- EC50 [2]: 0.219 µM
- maximal fold induction [1]: 1.36

Compound: Cc1ccc(N2Cc3cc4c(cc3C2=O)OCCO4)cc1 [ALB-116363]
- EC50 [2]: 0.024 µM
- maximal fold induction [3]: 1.54

Compound: CC(C)c1ccc(N2Cc3ccc(N4CCOCC4)cc3C2=O)cc1 [ALB-116368]
- maximal fold induction [1]: 1.08

Compound: O=C1c2cc3c(cc2CN1c1ccc(C2CCCCC2)cc1)OCCO3 [ALB-116417]
- maximal fold induction [3]: 1.11

Compound: CC(C)c1ccc(N2Cc3ccc(N4CCCCC4)cc3C2=O)cc1 [ALB-116418]
- maximal fold induction [1]: 1.15

Compound: CCN(CC)c1ccc2c(c1)C(=O)N(c1ccc(C(C)C)cc1)C2 [ALB-116639]
- EC50 [2]: 0.121 µM
- maximal fold induction [1]: 1.19

Compound: CC(C)c1ccc(N2Cc3ccc(CN(C)C)cc3C2=O)cc1 [ALB-116934]
- maximal fold induction [1]: 1.05

Compound: O=C1c2cc3c(cc2CN1c1ccc(C2CC2)cc1)OCCO3 [ALB-117043]
- EC50 [2]: 0.068 µM
- maximal fold induction [3]: 1.57

Compound: CCCC(C)c1ccc(N2Cc3ccccc3C2=O)cc1 (stereo not shown) [ALB-117045]
- EC50 [2]: 0.07 µM
- maximal fold induction [1]: 1.25

Compound: CC(=O)N(C)c1ccc2c(c1)C(=O)N(c1ccc(C(C)C)cc1)C2 [ALB-117047]
- EC50 [2]: 0.269 µM
- maximal fold induction [3]: 1.39
